Reference: the supplement of paper PMC10307832

Tests used:
Assay in all cases: relative viability (nuclei count vs DMSO), 5 days (fraction); higher = more cells survive
[1] = compound: C[As](C)SC[C@H](NC(=O)CC[C@H](N)C(=O)O)C(=O)NCC(=O)O [Darinaparsin] + CCNC(=O)c1noc(-c2cc(C(C)C)c(O)cc2O)c1-c1ccc(CN2CCOCC2)cc1 [Luminespib] (partner 0.01 µM)
Outline: (§1)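 Relative viability divides the nuclei count in treated wells by that in vehicle wells. Lung cancer cell lines were seeded in 1536-well plates, dosed by pin tool the next day, and fixed and stained after 5 days in one step with final 0.05% Triton X-100, 1% formaldehyde and 1 ug/ml Hoechst. Dosing was a single drug or a fixed anchor-drug dose plus five library-drug doses (not always all listed) in √10 steps, and values are medians of duplicate plates imaged at 4×.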

[2] = compound: C[As](C)SC[C@H](NC(=O)CC[C@H](N)C(=O)O)C(=O)NCC(=O)O [Darinaparsin] + CS(=O)(=O)CCNCc1ccc(-c2ccc3ncnc(Nc4ccc(OCc5cccc(F)c5)c(Cl)c4)c3c2)o1 [Lapatinib] (partner 2 µM)
Outline: as §1

[3] = compound: C[As](C)SC[C@H](NC(=O)CC[C@H](N)C(=O)O)C(=O)NCC(=O)O [Darinaparsin] + CC(=O)c1c(C)c2cnc(Nc3ccc(N4CCNCC4)cn3)nc2n(C2CCCC2)c1=O [Palbociclib] (partner 0.5 µM)
Outline: as §1

[4] = compound: CC1=C(C=C(C=C1)NC(=O)C2=CC(=CC=C2)C(C)(C)C#N)NC3=CC4=C(C=C3)N=CN(C4=O)C [AZ628] + CC1(C)CCC(c2ccc(Cl)cc2)=C(CN2CCN(c3ccc(C(=O)NS(=O)(=O)c4ccc(N[C@H](CCN5CCOCC5)CSc5ccccc5)c(S(=O)(=O)C(F)(F)F)c4)cc3)CC2)C1 [Navitoclax] (partner 0.5 µM)
Outline: as §1

| Cell Line | relative viability ([1]; first compound 0.08 µM) | relative viability ([1]; first compound 0.8 µM) | relative viability ([1]; first compound 2.53 µM) | relative viability ([1]; first compound 8 µM) | relative viability ([2]; first compound 0.08 µM) | relative viability ([2]; first compound 0.8 µM) | relative viability ([2]; first compound 2.53 µM) | relative viability ([2]; first compound 8 µM) | relative viability ([3]; first compound 0.08 µM) | relative viability ([3]; first compound 0.8 µM) | relative viability ([3]; first compound 2.53 µM) | relative viability ([3]; first compound 8 µM) | relative viability ([4]; first compound 0.08 µM) | relative viability ([4]; first compound 0.253 µM) | relative viability ([4]; first compound 0.8 µM) | relative viability ([4]; first compound 2.53 µM) | relative viability ([4]; first compound 8 µM) |
| --- | --- | --- | --- | --- | --- | --- | --- | --- | --- | --- | --- | --- | --- | --- | --- | --- | --- |
| SW 1573 | 0.23 | 0.364 | 0.302 | 0.249 | 1.1 | 1.1 | 1.09 | 1.22 | 0.412 | 0.353 | 0.355 | 0.488 | 0.905 | 0.746 | 0.851 | 0.902 | 0.436 |
| NCI-H2085 | 0.45 | 0.383 | 0.545 | 0.398 | 0.809 | 0.697 | 0.776 | 0.916 | 0.466 | 0.482 | 0.508 | 0.457 | 1.19 | 1.12 | 1.08 | 1.04 | 0.861 |
| NCI-H727 | 0.175 | 0.314 | 0.285 | 0.343 | 0.872 | 0.545 | 0.79 | 0.967 | 0.692 | 0.573 | 0.698 | 0.585 | 0.339 | 0.276 | 0.163 | 0.154 | 0.165 |
| NCI-H2405 | 0.822 | 0.611 | 0.61 | 0.689 | 1.04 | 1.01 | 1.04 | 1.1 | 0.532 | 0.492 | 0.473 | 0.606 | 0.49 | 0.64 | 0.53 | 0.415 | 0.575 |
| NCI-H1666 | 1.05 | 0.897 | 1.24 | 1.07 | 0.763 | 0.587 | 0.59 | 0.701 | 0.666 | 0.673 | 0.634 | 0.678 | 0.865 | 0.771 | 0.728 | 0.772 | 0.513 |
| BEN | 0.409 | 0.366 | 0.511 | 0.522 | 0.844 | 0.77 | 0.671 | 0.743 | 0.492 | 0.445 | 0.488 | 0.43 | 0.0576 | 0.0642 | 0.0651 | 0.0689 | 0.0471 |
| NCI-H1650 | 0.238 | 0.214 | 0.187 | 0.173 | 1 | 0.764 | 0.779 | 0.938 | 0.377 | 0.321 | 0.325 | 0.375 | 1.34 | 1.22 | 1.38 | 1.15 | 0.949 |
| HARA | 1.19 | 0.684 | 0.659 | 0.773 | 0.77 | 0.692 | 0.649 | 0.755 | 0.25 | 0.257 | 0.21 | 0.29 | 1.2 | 1.12 | 1.13 | 1.14 | 0.591 |
| RERF-LC-KJ | 1.97 | 1.21 | 1.11 | 1.15 | 1.11 | 0.849 | 0.762 | 1.03 | 1.13 | 1.11 | 1.02 | 1.08 | 1.04 | 0.816 | 0.755 | 0.861 | 0.745 |
| NCI-H1975 | 0.233 | 0.221 | 0.23 | 0.187 | 0.998 | 0.895 | 0.66 | 1.25 | 0.693 | 0.634 | 0.504 | 0.606 | 1.09 | 1.04 | 1.02 | 1.04 | 0.654 |
| EPLC-272H |  | 0.176 | 0.328 | 0.191 | 1.02 | 0.935 | 0.923 | 0.93 | 0.318 | 0.315 | 0.333 | 0.292 | 1.02 | 1.04 | 1.24 | 1.1 | 0.709 |
| HCC-15 | 0.461 | 0.253 | 0.326 | 0.467 | 1.04 | 0.76 | 0.81 | 1.11 | 0.639 | 0.773 | 0.723 | 0.882 | 0.676 | 0.619 | 0.54 | 0.474 | 0.312 |
| COR-L 105 | 0.867 | 0.775 | 0.712 | 0.682 | 0.388 | 0.388 |  | 0.349 | 0.456 | 0.373 | 0.397 | 0.382 | 0.81 | 0.967 | 0.761 | 0.655 | 0.652 |
| NCI-H1915 | 1.04 | 0.795 | 0.625 | 0.827 | 0.996 | 0.888 | 0.932 | 1.18 | 0.573 | 0.52 | 0.502 | 0.539 | 0.764 | 0.768 | 0.79 | 0.689 | 0.584 |
| NCI-H2347 | 1.01 |  | 0.414 | 0.388 | 1.23 | 0.883 | 0.919 | 1.1 | 0.43 | 0.404 | 0.447 | 0.4 | 0.519 | 0.67 | 0.712 | 0.638 | 0.368 |
| EKVX | 0.872 | 0.924 | 0.926 | 0.962 | 0.188 | 0.165 | 0.234 | 0.216 | 0.451 | 0.365 | 0.366 | 0.38 | 0.982 | 0.925 | 1.11 | 0.966 | 0.589 |
| LC-2-ad | 1.11 | 1.02 | 0.797 | 0.734 | 1.14 | 0.863 | 0.892 | 1.08 | 0.554 | 0.523 | 0.383 | 0.602 | 0.406 | 0.348 | 0.589 | 0.54 | 0.347 |
